Laboratory results from patent publication US4119729A, “Alkylsulfonylphenoxypropanolamine therapeutic process” (Mead Johnson & Company, priority 1977, dated 1978).
Like-named read-outs stand apart in the source and are kept apart here.

Tests used:
[1] = system: β-Adrenergic Receptor; experiment: guinea pig tracheal preparation, β-adrenergic receptor antagonist molar potency; conditions: molar potency relative to propranolol = 1
Text: (§1) Cardioselective β1 -adrenergic blocking activity of the compounds of the present invention can be assessed in standard in vitro pharmacological test systems such as the spontaneously beating rabbit atrial preparation and the guinea pig tracheal preparation.
(§2) A Comparison of β-Adrenergic Receptor Antagonist Molar
(§3) Potencies Determined in Rabbit Atrial and Guinea
(§4) Pig Tracheal Preparations

[2] = acute toxicity (LD50) in the rat; conditions: in vivo, po
[3] = acute toxicity (LD50) in the mouse; conditions: in vivo
[4] = system: isoproterenol-induced increased contractile force and heart rate; experiment: inhibition of isoproterenol-induced increased contractile force and heart rate in the anesthetized dog; type: in vivo; conditions: Canis lupus familiaris, intravenous, isoproterenol challenge 0.2 mcg./kg. intravenous
Text: A preferred compound of this invention, 1-(isopropylamino)-3-[4-(methylsulfonyl)-3-tolyloxy]-2-propanol hydrochloride, inhibits increased contractile force and heart rate in the anesthetized dog induced by a standard challenge dose of 0.2 mcg./kg.

[5] = system: β-Adrenergic Receptor; experiment: spontaneously beating rabbit atrial preparation, β-adrenergic receptor antagonist molar potency
Text: as §1, §2, §3, §4

[6] = system: spontaneous hypertensive rat; experiment: blood pressure lowering in the spontaneous hypertensive rat; type: in vivo; conditions: oral dose of 100 mg./kg. body weight
Procedure: For the purpose of treating hypertension in a mammal, the antihypertensive process of the instant invention is carried out by systemically administering to a mammal in need of such treatment an antihypertensive effective amount of a compound selected from the group characterized by Formula I or preferably by Formula X or a pharmaceutically acceptable non-toxic acid addition salt thereof. By systemic administration, it is intended to include both oral and parenteral routes. Examples of parenteral administration are intramuscular, intravenous, intraperitoneal,rectal, and subcutaneous administration. The dosage will vary with the form of administration and the particular compound chosen. However, from about 0.3 mg. per kg. body weight to 100 mg. per kg. body weight of a compound characterized by Formula I administered in effective single or multiple dosage units is generally satisfactory. In accordance with conventional clinical practice, the antihypertensive agent is administered at a dosage substantially less than the dose of the compound thought to be effective. Thereafter, the dosage is increased by small increments until the optimum antihypertensive effect under the circumstances is reached. At effective antihypertensive dosage levels, the compounds of this invention are substantially free of harmful or deleterious side effects. […]

| SMILES | Potency Ratio Trachea [1] | LD50 [2] [mg/kg] | LD50 ([3]; ip, read-out: intraperitoneal LD50) [mg/kg] | LD50 ([3]; po, read-out: oral LD50) [mg/kg] | ED50 ([4]; read-out: ED50, inhibition of increased contractile force) [mg/kg] | ED50 ([4]; read-out: ED50, inhibition of increased heart rate) [mg/kg] | Potency Ratio Atria ([5]; molar potency relative to propranolol = 1, rabbit atrial preparation) | Cardioselectivity Ratio: Atria/Trachea ([5]; ratio of potency ratios, rabbit atria / guinea pig trachea) | lowered blood pressure [6] |
| --- | --- | --- | --- | --- | --- | --- | --- | --- | --- |
| Cc1cc(OCC(O)CNC(C)C)ccc1S(C)(=O)=O.Cl (stereo not drawn) [1-(ISOPROPYLAMINO)-3-[4-(METHYLSULFONYL)-m-TOLYLOXY]-2-PROPANOL HYDROCHLORIDE] | 0.01 | 1790 | 339 | 1500 | 0.71 | 2.02 | 0.37 | 37 | – |
| Cc1cc(OCC(O)CNC(C)COc2ccccc2)ccc1S(C)(=O)=O (stereo not drawn) [3-[4-(methylsulfonyl)-m-tolyloxy]-1-(1-phenoxy-2-propylamino)-2-propanol] | – | – | – | – | – | – | – | – | about 22.4 mm Hg |
